Results on 20 molecules are retold here after patent US9296741B2, “Bromodomain inhibitors” (priority 2012, dated 2016).

Read-outs that look alike come from different tables or passages of the source.

The target of data set [1] is human BRD4 first bromodomain (BDI_K57-E168) (Homo sapiens (Human), UniProt O60885). In words: TR-FRET bromodomain binding assay, BRD4 first bromodomain. A general note: Time-resolved FRET reads energy transfer from a long-lived donor to a nearby acceptor.
The target of data set [2] is human BRD4 second bromodomain (BDII_E352-M457) (Homo sapiens (Human), UniProt O60885). The data set can be described thus: TR-FRET bromodomain binding assay, BRD4 second bromodomain.
Data set [3] deals with breast cancer cell line MX-1. The data set can be described thus: MX-1 cell line proliferation assay. Type of data set: cell-based, human. As to conditions: MX-1 cells, 3-day proliferation, Cell Titer Glo, read-out: Cellular proliferation: EC50. (In general: In ATP-based viability assays light output follows the ATP content of the culture.)
The nature of data set [4]: Human liver microsome stability assay. It counts as in vitro ADME. The conditions noted are these: human, microsomes, pH 7.4; for half-life at 0.5 μM: both sexes. Background: Liver microsomes are vesicles of endoplasmic reticulum, rich in cytochrome P450 enzymes.
Data set [5] can be described thus: Rat liver microsome stability assay. Type of data set: in vitro ADME. As to conditions: for half-life at 0.5 μM: rat liver microsomes (male Sprague-Dawley), 0.5 μM test compound, 0.25 mg/mL microsomal protein, pH 7.4, 37° C., read-out: Stability in rat liver microsomes (t1/2 in minutes).
The nature of data set [6]: Mouse liver microsome stability assay. It counts as in vitro ADME. The conditions noted are these: male, CD1, mouse, microsomes, pH 7.4.

In the case of `CCS(=O)(=O)N(Cc1ccccn1)c1ccc(Oc2ccc(F)cc2F)c(-c2cn(C)c(=O)c3[nH]ccc23)c1` [Example 342, N-[4-(2,4-difluorophenoxy)-3-(6-methyl-7-oxo-6,7-dihydro-1H-pyrrolo[2,3-c]pyridin-4-yl)phenyl]-N-(pyridin-2-ylmethyl)ethanesulfonamide], the values for the inhibition constant Ki in data set [1] and in data set [2] were 71.9 nM and 11.5 nM, respectively. The EC50 in data set [3] (Homo sapiens, MX1, 72 h) turned out to be 510 nM. The half-life at 0.5 μM in data set [4] was found to be 2 min; in data set [5], 5 min.

As to `CCS(=O)(=O)c1ccc(OC2CCSCC2)c(-c2cn(C)c(=O)c3[nH]ccc23)c1` [Example 264, 4-[5-(ethylsulfonyl)-2-(tetrahydro-2H-thiopyran-4-yloxy)phenyl]-6-methyl-1,6-dihydro-7H-pyrrolo[2,3-c]pyridin-7-one], the Ki in data set [1] and in data set [2] was 1.2 nM throughout. Moreover, in data set [3] (Homo sapiens, MX1, 72 h), the EC50 amounted to 17.8 nM. For the same molecule, the half-life at 0.5 μM came out at 14 min in data set [4] and 6 min in data set [5].

With `Cn1cc(-c2cc(C(=O)NCCc3c[nH]c4ccccc34)ccc2Oc2ccc(F)cc2F)c2cc[nH]c2c1=O` [Example 133, 4-(2,4-difluorophenoxy)-N-[2-(1H-indol-3-yl)ethyl]-3-(6-methyl-7-oxo-6,7-dihydro-1H-pyrrolo[2,3-c]pyridin-4-yl)benzamide], the half-life at 0.5 μM was 4 min in data set [4], 5 min in data set [5] and 3 min in data set [6].

As for `Cn1cc(-c2cc(C(=O)Nc3ccc4cn[nH]c4c3)ccc2Oc2ccc(F)cc2F)c2cc[nH]c2c1=O` [Example 118, 4-(2,4-difluorophenoxy)-N-(1H-indazol-6-yl)-3-(6-methyl-7-oxo-6,7-dihydro-1H-pyrrolo[2,3-c]pyridin-4-yl)benzamide], the half-life at 0.5 μM in data set [4] is 81 min; in data set [5], 34 min; in data set [6], 18 min.

Take `Cc1cc(OCC2CC2)c(-c2cn(C)c(=O)c3[nH]ccc23)cc1NS(C)(=O)=O` [Example 263, N-[4-(cyclopropylmethoxy)-2-methyl-5-(6-methyl-7-oxo-6,7-dihydro-1H-pyrrolo[2,3-c]pyridin-4-yl)phenyl]methanesulfonamide]: the Ki was found to be 8.8 nM in data set [1] and 16.3 nM in data set [2]. Further, in data set [3] (Homo sapiens, MX1, 72 h), the EC50 was 76.9 nM. Besides, the half-life at 0.5 μM came out at 70 min in data set [4] and 72 min in data set [5].

In the case of `CCS(=O)(=O)Cc1ccc(Oc2ccc(F)cc2F)c(-c2cn(C)c(=O)c3[nH]ccc23)c1` [Example 297, 4-{2-(2,4-difluorophenoxy)-5-[(ethylsulfonyl)methyl]phenyl}-6-methyl-1,6-dihydro-7H-pyrrolo[2,3-c]pyridin-7-one], the inhibition constant (Ki) in data set [1] came out at 14.2 nM; in data set [2], 5.2 nM. For the same molecule, the EC50 in data set [3] (Homo sapiens, MX1, 72 h) came out at 18.6 nM. Besides, the results for the half-life at 0.5 μM in data set [4] and in data set [5] were 83 min and 43 min, respectively.

With `CN(C)S(=O)(=O)c1cnc(Oc2ccc(F)cc2F)c(-c2cn(C)c(=O)c3[nH]ccc23)c1` [Example 266, 6-(2,4-difluorophenoxy)-N,N-dimethyl-5-(6-methyl-7-oxo-6,7-dihydro-1H-pyrrolo[2,3-c]pyridin-4-yl)pyridine-3-sulfonamide], the inhibition constant Ki in data set [1] is 21.5 nM; in data set [2], 7.8 nM. Besides, in data set [3] (Homo sapiens, MX1, 72 h), the EC50 came out at 56.4 nM. Further, the half-life at 0.5 μM in data set [4] turned out to be 8 min; in data set [5] it was 20 min.

Regarding `Cn1cc(-c2ccccc2C(=O)c2ccc(Cl)cc2)c2cc[nH]c2c1=O` [Example 139, 4-[2-(4-chlorobenzoyl)phenyl]-6-methyl-1,6-dihydro-7H-pyrrolo[2,3-c]pyridin-7-one], the results for the half-life at 0.5 μM in data set [4], in data set [5] and in data set [6] were 13 min, 8 min and 7 min, respectively.

As for `Cn1cc(-c2cc(S(=O)(=O)N3CCCC3)ccc2Oc2ccc(F)cc2F)c2cc[nH]c2c1=O` [Example 299, 4-[2-(2,4-difluorophenoxy)-5-(pyrrolidin-1-ylsulfonyl)phenyl]-6-methyl-1,6-dihydro-7H-pyrrolo[2,3-c]pyridin-7-one], the figures for the inhibitory constant (Ki) in data set [1] and in data set [2] were 80.1 nM and 5 nM, respectively. Moreover, the EC50 in data set [3] (Homo sapiens, MX1, 72 h) turned out to be 36 nM. Further, the half-life at 0.5 μM in data set [4] was determined as 1 min; in data set [5] it was 2 min.

On to `CN(C)C(=O)CN1CCN(C(=O)c2ccc(Oc3ccc(F)cc3F)c(-c3cn(C)c(=O)c4[nH]ccc34)c2)CC1` [Example 127, 2-{4-[4-(2,4-difluorophenoxy)-3-(6-methyl-7-oxo-6,7-dihydro-1H-pyrrolo[2,3-c]pyridin-4-yl)benzoyl]piperazin-1-yl}-N,N-dimethylacetamide], for which the half-life at 0.5 μM in data set [4] is 44 min; in data set [5], 71 min; in data set [6], 20 min.

For the molecule `CCN(CC)S(=O)(=O)c1cnc(OCC2CC2)c(-c2cn(C)c(=O)c3[nH]ccc23)c1` [Example 272, 6-(cyclopropylmethoxy)-N,N-diethyl-5-(6-methyl-7-oxo-6,7-dihydro-1H-pyrrolo[2,3-c]pyridin-4-yl)pyridine-3-sulfonamide], the Ki in data set [1] came to 10.2 nM; in data set [2] it was 11.6 nM. In addition, the EC50 in data set [3] (Homo sapiens, MX1, 72 h) turned out to be 112 nM. The half-life at 0.5 μM in data set [4] was 2 min; in data set [5] it was 4 min.

For `Cn1cc(-c2cc(S(=O)(=O)NCc3cccnc3)ccc2OCC2CC2)c2cc[nH]c2c1=O` [Example 333, 4-(cyclopropylmethoxy)-3-(6-methyl-7-oxo-6,7-dihydro-1H-pyrrolo[2,3-c]pyridin-4-yl)-N-(pyridin-3-ylmethyl)benzenesulfonamide], the Ki in data set [1] was found to be 36.9 nM; in data set [2] it was 32.7 nM. Moreover, in data set [3] (Homo sapiens, MX1, 72 h), the EC50 came to 74 nM. In addition, the half-life at 0.5 μM came to 0.8 min in data set [4] and 3 min in data set [5].

On to `Cn1cc(-c2cc(S(C)(=O)=O)ccc2OC2Cc3ccccc3C2)c2cc[nH]c2c1=O` [Example 277, 4-[2-(2,3-dihydro-1H-inden-2-yloxy)-5-(methylsulfonyl)phenyl]-6-methyl-1,6-dihydro-7H-pyrrolo[2,3-c]pyridin-7-one], for which the inhibitory constant (Ki) in data set [1] came out at 6.3 nM; in data set [2], 14.3 nM. In addition, in data set [3] (Homo sapiens, MX1, 72 h), the EC50 was determined as 21.1 nM. In addition, the half-life at 0.5 μM came out at 4 min in data set [4] and 5 min in data set [5].

As for `Cn1cc(-c2cc(CN3CCOCC3)ccc2OCC2CC2)c2cc[nH]c2c1=O` [Example 316, 4-[2-(cyclopropylmethoxy)-5-(morpholin-4-ylmethyl)phenyl]-6-methyl-1,6-dihydro-7H-pyrrolo[2,3-c]pyridin-7-one], the half-life at 0.5 μM in data set [4] is 47 min; in data set [5], 3 min; in data set [6], 12 min.

For the molecule `Cn1cc(-c2ccccc2C(O)c2ccc(Cl)cc2)c2cc[nH]c2c1=O` (centres unmarked) [Example 140, 4-{2-[(4-chlorophenyl)(hydroxy)methyl]phenyl}-6-methyl-1,6-dihydro-7H-pyrrolo[2,3-c]pyridin-7-one], the figures for the half-life at 0.5 μM in data set [4], in data set [5] and in data set [6] were 19 min, 13 min and 18 min, respectively.

`COc1cc(Br)ccc1-c1cn(C)c(=O)c2[nH]ccc12` [Example 241, 4-(4-bromo-2-methoxyphenyl)-6-methyl-1,6-dihydro-7H-pyrrolo[2,3-c]pyridin-7-one]: the half-life at 0.5 μM in data set [4] was found to be 39 min; in data set [5], 9 min; in data set [6], 4 min.

As to `Cn1cc(-c2cc(S(=O)(=O)Nc3ccc(F)cc3)ccc2OCC2CC2)c2cc[nH]c2c1=O` [Example 347, 4-(cyclopropylmethoxy)-N-(4-fluorophenyl)-3-(6-methyl-7-oxo-6,7-dihydro-1H-pyrrolo[2,3-c]pyridin-4-yl)benzenesulfonamide], the inhibition constant Ki is 15.6 nM in data set [1] and 4 nM in data set [2]. Moreover, the EC50 in data set [3] (Homo sapiens, MX1, 72 h) came out at 83.9 nM. The half-life at 0.5 μM in data set [4] was found to be 4 min; in data set [5] it was 6 min.

In the case of `CCS(=O)(=O)c1ccc(O[C@H]2CC[C@@](C)(OC)CC2)c(-c2cn(C)c(=O)c3[nH]ccc23)c1` [Example 268, 4-(5-(ethylsulfonyl)-2-(cis-4-methoxy-4-methylcyclohexyloxy)phenyl)-6-methyl-1H-pyrrolo[2,3-c]pyridin-7(6H)-one], the inhibitory constant (Ki) in data set [1] amounted to 0.76 nM; in data set [2], 0.57 nM. For the same molecule, the EC50 in data set [3] turned out to be 6.2 nM. Moreover, the “Stability in human liver microsomes (t1/2 in minutes)” value in data set [4] was 10 min. Besides, in data set [5] (rat, microsomes, pH 7.4), the “Stability in rat liver microsomes (t1/2 in minutes)” value is 26 min.

Take `CCS(=O)(=O)c1ccc(OC2CCS(=O)(=O)CC2)c(-c2cn(C)c(=O)c3[nH]ccc23)c1` [Example 265, 4-{2-[(1,1-dioxidotetrahydro-2H-thiopyran-4-yl)oxy]-5-(ethylsulfonyl)phenyl}-6-methyl-1,6-dihydro-7H-pyrrolo[2,3-c]pyridin-7-one]: the Ki in data set [1] worked out at 9 nM; in data set [2], 35.6 nM. Moreover, the EC50 in data set [3] (Homo sapiens, MX1, 72 h) is more than 3000 nM. The half-life at 0.5 μM in data set [4] and in data set [5] was more than 120 min each time.

With `CCS(=O)(=O)Nc1ccc(OC2CCOC2)c(-c2cn(C)c(=O)c3[nH]ccc23)c1` (centres unmarked) [Example 66, N-[3-(6-methyl-7-oxo-6,7-dihydro-1H-pyrrolo[2,3-c]pyridin-4-yl)-4-(tetrahydrofuran-3-yloxy)phenyl]ethanesulfonamide], the Ki was determined as 0.74 nM in data set [1] and 3.4 nM in data set [2]. Further, the EC50 in data set [3] (Homo sapiens, MX1, 72 h) was 33.2 nM. The half-life at 0.5 μM in data set [4] and in data set [5] was more than 120 min each time.

For orientation: Ki means a dissociation constant, usually derived from enzyme kinetics or from competition with a known ligand. The low end stands for a stronger hold on the target, the high end for a looser hold on the target.
